According to patent US9150627B2, “Anti tumoral immunogenic peptides and vaccine thereof” (priority 2004, dated 2015):
Where no end group is shown, it is not given here.

System: DHD-K12 cells
Conditions: rat, in vivo
Excerpt: Autologous colon carcinoma DHD-K12 line cells were inoculated intra-splenically in BDIX rats. These cells metastatize at polmonar and hepatic level and naturally express the epitope common also to human colon rectal carcinoma ([…] (SEQ ID NO:4)). To evaluate the relevance of […] (SEQ ID NO:4) antigen in antigen specific cytotoxic response BDIX rats were immunized with DHD-K12.
PBMC cytotoxic activity (cytotoxicity test based on the release of ^51Cr or LDH) of BDIX rats against DHD-K12 cells was evaluated after immunization and tumor inoculum.

RTQKEASIC
PBMC cytotoxic activity after tumor inoculum, pre-immunized vs non immunized rats: significantly increased
PBMC cytotoxic activity against DHD-K12 after immunization: high cytotoxic activity
